Laboratory results from patent US12247029B2, “Heterocyclic compounds as class II phosphoinositide 3-kinase inhibitors” (Forschungsverbund Berlin e.V., priority 2018, dated 2025).

Molecular target: PI3KC2α Δ1-298 (Homo sapiens (Human), UniProt O00443)
Experiment: ADP-Glo kinase assay with purified PI3KC2α Δ1-298
Type: biochemical
Details: not given
Experimental: Previous studies have shown that PI3KC2α can utilize phosphatidylinositol (PI) or phosphatidylinositol 4-phosphate [PI(4)P] to produce PI(3)P or PI(3,4)P2 respectively but with a preference for PI(3,4)P2 production. To verify that purified PI3KC2α Δ1-298 is active, a radioactive kinase assay was performed with PI as a substrate and different amounts of purified PI3KC2α Δ1-298. The lipid product [PI(3)P] was separated on TLC plates, and the PI(3)P signal was correlated with the amount of PI3KC2α used (FIG. 4A). […] After having confirmed the activity of purified PI3KC2α Δ1-298, an assay suitable for high content screens in multiwell format (ADP-Glo™ assay) was established. The ADP-Glo™ assay has been used for universal detection of ATP hydrolysis. This assay measures ATP hydrolysis occurring during a kinase reaction. For detection, generated ADP is re-converted into ATP with the […] and converted into light by the Ultra-Glo™ Luciferase reagent. The luminescent signal reports kinase activity (FIG. 4B).
The ADP-Glo™ assay was first used to determine the linear correlation range of signal with different amounts of kinase, and then to assess the Kms for ATP and for PI. […] Further optimization of this assay allowed us to carry out medium-to-high throughput screening using low amounts of purified enzyme (at fixed concentrations of: ATP=40 μM, PI=200 μM, PI3KC2α A1−298=10 ng/μl).
Primary screens were performed using the ADP-Glo™ assay in a 384-well format. 37, 224 small molecules were screened for their ability to inhibit kinase activity of PI3KC2α Δ1-298. The concentration of each compound used in the primary screens was 10 μM. Kinase incubations with ATP but without PI were used as negative control samples. This primary screen turned out to be robust with an average z′ factor of 0.57, and therefore judged as successful.
ADP-Glo kinase assay was performed as described by the manufacturer's protocol. Briefly, the kinase assay was performed with a […] of liver PI/ATP/purified PI3KC2α for 20 min in kinase reaction buffer described above. To deplete the remaining ATP from the reaction, 5 μl of […] was added to the kinase reaction mixture and incubated for 40 min. For detection, the generated ADP is re-converted into ATP and converted into light by the Ultra-Glo™ luciferase in kinase detection reagent. The luminescent signal positively correlates with kinase activity. All reactions are performed in Corning® 384 well-white plates.

PI3KC2α Δ1-298, sequence (O00443 299-1686): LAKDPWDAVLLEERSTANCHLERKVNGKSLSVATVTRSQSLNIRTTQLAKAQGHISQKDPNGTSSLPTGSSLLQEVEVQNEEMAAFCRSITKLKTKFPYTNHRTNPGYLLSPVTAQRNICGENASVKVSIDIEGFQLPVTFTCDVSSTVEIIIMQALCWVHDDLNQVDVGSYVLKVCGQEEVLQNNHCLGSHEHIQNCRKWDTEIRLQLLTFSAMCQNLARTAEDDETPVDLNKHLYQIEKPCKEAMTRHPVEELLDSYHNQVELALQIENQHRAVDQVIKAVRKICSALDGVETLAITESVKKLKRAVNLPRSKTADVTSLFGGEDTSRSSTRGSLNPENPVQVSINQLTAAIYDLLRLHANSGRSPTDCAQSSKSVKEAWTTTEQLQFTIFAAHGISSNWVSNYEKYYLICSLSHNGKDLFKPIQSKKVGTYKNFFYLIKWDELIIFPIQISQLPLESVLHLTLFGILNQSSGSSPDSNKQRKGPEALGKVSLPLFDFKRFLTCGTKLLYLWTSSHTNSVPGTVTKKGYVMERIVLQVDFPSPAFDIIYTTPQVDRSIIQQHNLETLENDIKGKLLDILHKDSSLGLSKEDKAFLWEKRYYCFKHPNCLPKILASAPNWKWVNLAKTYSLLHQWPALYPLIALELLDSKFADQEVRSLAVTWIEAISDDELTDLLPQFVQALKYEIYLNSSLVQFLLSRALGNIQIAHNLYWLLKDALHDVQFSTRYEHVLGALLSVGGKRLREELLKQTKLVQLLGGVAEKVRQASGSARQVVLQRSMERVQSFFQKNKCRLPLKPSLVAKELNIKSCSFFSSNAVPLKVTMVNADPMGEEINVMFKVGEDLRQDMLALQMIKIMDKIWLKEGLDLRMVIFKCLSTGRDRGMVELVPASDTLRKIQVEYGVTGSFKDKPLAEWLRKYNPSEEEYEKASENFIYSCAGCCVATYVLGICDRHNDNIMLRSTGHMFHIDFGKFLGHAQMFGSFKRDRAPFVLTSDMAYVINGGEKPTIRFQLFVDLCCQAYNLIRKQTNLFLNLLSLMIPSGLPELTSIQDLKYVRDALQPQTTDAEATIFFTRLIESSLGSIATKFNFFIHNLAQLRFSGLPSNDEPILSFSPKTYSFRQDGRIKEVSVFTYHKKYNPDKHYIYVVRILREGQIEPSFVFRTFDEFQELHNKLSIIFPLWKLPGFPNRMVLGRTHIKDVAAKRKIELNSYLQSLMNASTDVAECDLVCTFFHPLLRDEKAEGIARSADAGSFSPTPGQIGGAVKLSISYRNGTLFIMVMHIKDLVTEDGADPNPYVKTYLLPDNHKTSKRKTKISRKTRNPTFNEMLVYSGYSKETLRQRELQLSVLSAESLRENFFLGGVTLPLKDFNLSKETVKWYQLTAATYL

PI3KC2α inhibitory activity (in words, SAR) | inhibition at 10 µM [%] | SMILES
functional compounds |  | O=C(CSc1nc2nccnc2c(=O)n1CCc1ccccc1)Nc1ncc(Br)s1 [Example Compound 29, N-(5-Bromothiazol-2-yl)-2-((4-oxo-3-phenethyl-3,4-dihydropteridin-2-yl)thio)acetamide]
 | 30 | CC(C)NC(=O)CSc1nc2nccnc2c(=O)n1CCc1ccccc1 [Example Compound 61, N-Isopropyl-2-((4-oxo-3-phenethyl-3,4-dihydropteridin-2-yl)thio)acetamide]
 | 31 | O=C(CCc1nc2nccnc2c(=O)n1CCc1ccccc1)Nc1ccccc1 [Example Compound 100, 3-(4-Oxo-3-phenethyl-3,4-dihydropteridin-2-yl)-N-phenylpropanamide]
 | 35 | O=C(CSc1nc2nccnc2c(=O)n1CCc1ccccc1)c1ccccc1F [Example Compound 64, 2-((2-(2-Fluorophenyl)-2-oxoethyl)thio)-3-phenethylpteridin-4(3H)-one]
functional compounds |  | O=C(CSc1nc2nccnc2c(=O)n1CCc1cccc(F)c1)Nc1nc(-c2ccc(F)cc2)cs1 [Example Compound 6, 2-((3-(3-Fluorophenethyl)-4-oxo-3,4-dihydropteridin-2-yl)thio)-N-(4-(4-fluorophenyl)thiazol-2-yl)acetamide]

Same assay, conditions: read-out: IC50 (PI3KC2α; ADP-Glo™ assay)

IC50 [nM] | SMILES
2200 | COC(=O)Cc1csc(NC(=O)CSc2nc3nccnc3c(=O)n2CCc2ccccc2)n1 [Example Compound 24, Methyl 2-(2-(2-((4-oxo-3-phenethyl-3,4-dihydropteridin-2-yl)thio)acetamido)thiazol-4-yl)acetate]
130 | O=c1c2nccnc2nc(SCc2nc3ccccc3[nH]2)n1C1Cc2ccccc2C1 [Example Compound 88, 2-(((1H-Benzo[d]imidazol-2-yl)methyl)thio)-3-(2,3-dihydro-1H-inden-2-yl)pteridin-4(3H)-one]
26000 | O=C(CSc1nc2nccnc2c(=O)n1CCc1ccccc1)Nc1nc(-c2ccc3ccccc3c2)cs1 [Example Compound 48, N-(4-(Naphthalen-2-yl)thiazol-2-yl)-2-((4-oxo-3-phenethyl-3,4-dihydropteridin-2-yl)thio)acetamide]
3300 | O=C(CSc1nc2nccnc2c(=O)n1CCc1ccccc1)Nc1ccccc1 [Example Compound 22, 2-((4-Oxo-3-phenethyl-3,4-dihydropteridin-2-yl)thio)-N-phenylacetamide]
7100 | O=C(CSc1nc2nccnc2c(=O)n1CCc1ccccc1)Nc1nc(-c2ccc(Cl)cc2)cs1 [Example Compound 49, N-(4-(4-Chlorophenyl)thiazol-2-yl)-2-((4-oxo-3-phenethyl-3,4-dihydropteridin-2-yl)thio)acetamide]
6600 | O=C(CSc1nc2nccnc2c(=O)n1CCc1ccccc1)Nc1ncc(Br)s1 [Example Compound 29, N-(5-Bromothiazol-2-yl)-2-((4-oxo-3-phenethyl-3,4-dihydropteridin-2-yl)thio)acetamide]
820 | O=C(CSc1nc2ncccc2c(=O)n1CCc1ccccc1)Nc1nccs1 [Example Compound 54, 2-((4-Oxo-3-phenethyl-3,4-dihydropyrido[2,3-d]pyrimidin-2-yl)thio)-N-(thiazol-2-yl)acetamide]
9500 | CS(=O)(=O)c1ccc(-n2c(SCC(=O)Nc3nccs3)nc3nccnc3c2=O)cc1 [Example Compound 78, 2-((3-(4-(Methylsulfonyl)phenyl)-4-oxo-3,4-dihydropteridin-2-yl)thio)-N-(thiazol-2-yl)acetamide]
7600 | N#Cc1ccc(NC(=O)CSc2nc3nccnc3c(=O)n2CCc2ccccc2)nc1 [Example Compound 28, N-(5-Cyanopyridin-2-yl)-2-((4-oxo-3-phenethyl-3,4-dihydropteridin-2-yl)thio)acetamide]
7900 | O=C(CSc1nc2nccnc2c(=O)n1Cc1ccco1)Nc1ccccc1F [Example Compound 33, N-(2-Fluorophenyl)-2-((3-(furan-2-ylmethyl)-4-oxo-3,4-dihydropteridin-2-yl)thio)acetamide]
6300 | Cc1nnc(NC(=O)CSc2nc3nccnc3c(=O)n2CCc2cccc(F)c2)s1 [Example Compound 5, 2-((3-(3-Fluorophenethyl)-4-oxo-3,4-dihydropteridin-2-yl)thio)-N-(5-methyl-1,3,4-thiadiazol-2-yl)acetamide]
760 | O=C(CSc1nc2nccnc2c(=O)n1CCc1ccccc1)Nc1nc(-c2ccsc2)cs1 [Example Compound 23, 2-((4-Oxo-3-phenethyl-3,4-dihydropteridin-2-yl)thio)-N-(4-(thiophen-3-yl)thiazol-2-yl)acetamide]
16000 | C[C@@H](c1ccccc1)n1c(SCc2nc3ccccc3[nH]2)nc2nccnc2c1=O [Example Compound 90, (S)-2-(((1H-Benzo[d]imidazol-2-yl)methyl)thio)-3-(1-phenylethyl)pteridin-4(3H)-one]
1700 | C[C@@H](c1ccccc1)n1c(SCC(=O)Nc2nccs2)nc2nccnc2c1=O [Example Compound 89, (S)-2-((4-Oxo-3-(1-phenylethyl)-3,4-dihydropteridin-2-yl)-thio)-N-(thiazol-2-yl) acetamide]
< 50000 | O=C(CSc1nc2nccnc2c(=O)n1Cc1ccccc1)Nc1nccs1 [Example Compound 42, 2-((3-Benzyl-4-oxo-3,4-dihydropteridin-2-yl)thio)-N-(thiazol-2-yl)acetamide]
1500 | O=C(CSc1nc2nccnc2c(=O)n1CCc1ccccc1)Nc1nc(-c2cccc(F)c2)cs1 [Example Compound 26, N-(4-(3-Fluorophenyl)thiazol-2-yl)-2-((4-oxo-3-phenethyl-3,4-dihydropteridin-2-yl)thio)acetamide]
100 | O=c1c2nccnc2nc(SCc2nc3ccccc3[nH]2)n1CCc1ccc(O)cc1 [Example Compound 96, 2-(((1H-Benzo[d]imidazol-2-yl)methyl)thio)-3-(4-hydroxyphenethyl)pteridin-4(3H)-one]
22000 | O=c1c2nccnc2nc(SCc2ncc[nH]2)n1CCc1ccccc1 [Example Compound 76, 2-(((1H-Imidazol-2-yl)methyl)thio)-3-phenethylpteridin-4(3H)-one]
9000 | O=C(CSc1nc2nccnc2c(=O)n1-c1cccc(-c2ccccc2)c1)Nc1nccs1 [Example Compound 17, 2-((3-([1,1′-Biphenyl]-3-yl)-4-oxo-3,4-dihydropteridin-2-yl)thio)-N-(thiazol-2-yl)acetamide]
320 | COC(=O)[C@H]1C[C@H](n2c(SCc3nc4ccccc4[nH]3)nc3nccnc3c2=O)C1 [Example Compound 92, trans-Methyl-3-(2-(((1H-benzo[d]imidazol-2-yl)methyl)thio)-4-oxo-pteridin-3(4H)-yl)cyclobutane-1-carboxylate]
210 | O=C(CSc1nc2nccnc2c(=O)n1CCc1ccc(O)cc1)Nc1nccs1 [Example Compound 95, 2-((3-(4-Hydroxyphenethyl)-4-oxo-3,4-dihydropteridin-2-yl)thio)-N-(thiazol-2-yl)acetamide]
42000 | Cc1ccnc2[nH]c(CSc3nc4nccnc4c(=O)n3CCc3ccccc3)nc12 [Example Compound 70, 2-(((7-Methyl-3H-imidazo[4,5-b]pyridin-2-yl)methyl)thio)-3-phenethylpteridin-4(3H)-one]
6000 | O=C(CSc1nc2nccnc2c(=O)n1CCc1ccccc1)Nc1ccccc1F [Example Compound 15, N-(2-Fluorophenyl)-2-((4-oxo-3-phenethyl-3,4-dihydropteridin-2-yl)thio)acetamide]
920 | CS(=O)(=O)c1ccc(-n2c(SCc3nc4ccccc4[nH]3)nc3nccnc3c2=O)cc1 [Example Compound 79, 2-(((1H-Benzo[d]imidazol-2-yl)methyl)thio)-3-(4-(methylsulfonyl)phenyl)pteridin-4(3H)-one]
1200 | CC(C)(C)OC(=O)N1CCC(n2c(SCc3nc4ccccc4[nH]3)nc3nccnc3c2=O)CC1 [Example Compound 94, tert-Butyl 4-(2-(((1H-benzo[d]imidazol-2-yl)methyl)thio)4-oxopteridin-3(4H)-yl)piperidine-1-carboxylate]
1500 | Cn1ncc2c(=O)[nH]c(CSc3nc4nccnc4c(=O)n3CCc3ccccc3)nc21 [Example Compound 71, 2-(((1-Methyl-4-oxo-4,5-dihydro-1H-pyrazolo[3,4-d]pyrimidin-6-yl)methyl)thio)-3-phenethylpteridin-4(3H)-one]
610 | O=C(CSc1nc2nccnc2c(=O)n1CCc1cccc(F)c1)Nc1nc(-c2ccc(F)cc2)cs1 [Example Compound 6, 2-((3-(3-Fluorophenethyl)-4-oxo-3,4-dihydropteridin-2-yl)thio)-N-(4-(4-fluorophenyl)thiazol-2-yl)acetamide]
130 | CS(=O)(=O)Nc1cccc(-c2csc(NC(=O)CSc3nc4nccnc4c(=O)n3CCc3ccccc3)n2)c1 [Example Compound 12, N-(4-(3-(Methylsulfonamido)phenyl)thiazol-2-yl)-2-((4-oxo-3-phenethyl-3,4-dihydropteridin-2-yl)thio)acetamide]
